Measurements taken from patent US20090018019A1, “INCREASING PATHOGEN DEFENCE IN PLANTS” (priority 2005, published 2009).
“Also recorded” adds a separate entry of the source.

Tests used:
Type in all cases: in vivo
[1] = tested on: genes for PR proteins; assay: DNA chip expression analysis of barley leaves after soil treatment, gene group; conditions: treated plants compared with non-treated plants
Experimental: (§1) Barley seeds (of the Baroness variety) were sown in pots containing soil about 2 cm deep (1250 g of sandy loam/per pot; the soil moisture content was adjusted to 70% of the maximum water-holding capacity) and cultivated in a climatized chamber under specified light, moisture and temperature conditions (15 h white light, 70% atmospheric humidity, 23-19° C. day/night).
(§2) 14 days after the emergence of the barley plants 10 mg of imidacloprid per plant, dissolved in 100 ml water, were applied by means of a pipette to the soil around the base of the shoot. The same volume of water without any active compound was applied to the control pots. After the soil treatment the plants were no longer watered. At various times after application (0.25; 1; 6; 8; 11; 13; 15; 16 and 17 days) the leaves were harvested, quick-frozen in liquid nitrogen and stored at −80° C. until further treatment.
The labelled RNA probes for the DNA chip hybridization were produced according to the protocols (Expression Analysis, Technical Manual) of the Affymetrix company (Affymetrix Inc., 3380 Central Expressway, Santa Clara, Calif., USA). Whole RNA was first of all isolated from in each case 500 mg of the harvested leaves. […] The fluorescence data obtained were analyzed with the Microarray Suite 5 software from Affymetrix and the Expressionist Pro software from the GeneData company. […]

[2] = tested on: Contig2210_at PATHOGENESIS-RELATED PROTEIN 1 PRECURSOR; assay: DNA chip expression analysis of barley leaves after soil treatment; conditions: 10 mg per plant to soil
Experimental: as §1, §2
(§3) The labelled RNA probes for the DNA chip hybridization were produced according to the protocols (Expression Analysis, Technical Manual) of the Affymetrix company (Affymetrix Inc., 3380 Central Expressway, Santa Clara, Calif., USA). Whole RNA was first of all isolated from in each case 500 mg of the harvested leaves. 10 μg portions of whole RNA were used for the first and second strand cDNA synthesis. The cDNA was amplified with T7 polymerase and simultaneously labelled with biotin-UTP. 20 μg portions of this biotinylated cDNA were used for the hybridization of the barley genome array (Barleyl Gene Chip, Item no: 511012) from Affymetrix. This DNA microarray contains DNA sequences of 22840 genes composed of a total of 400000 EST (Expressed Sequence Tag) sequences. Then the DNA microarrays were washed in the Affymetrix Fluidics Station, stained with streptavidin/phycoerythrin (Molecular Probes, P/N S-866) and scanned with the Affymetrix Gene Chip Scanner 3000. The fluorescence data obtained were analyzed with the Microarray Suite 5 software from Affymetrix and the Expressionist Pro software from the GeneData company. After a quality check, all of the DNA chip analyses were stored in a database. Since the Affymetrix Gene Chip System is based on measuring the absolute expression values of the genes contained in the chip, the expression values of the biological replicates of treated and non-treated plants were averaged after normalization (median calculation). With the aid of the statistical ANOVA method, those genes were identified whose expression was increased in the plants treated with imidacloprid but remained relatively constant in the untreated controls. The assembly of gene groups from specific metabolic pathways, signal transduction chains or functions was carried out by a keyword search through the gene annotations supplied by Affymetrix and by linking the genes to their corresponding Gene Ontology Annotations (Gene Ontology Consortium).

[3] = tested on: Contig2990_at CHITINASE (EC 3.2.1.14); assay: as above; conditions: 10 mg per plant to soil
Experimental: as §1, §2, §3

[4] = tested on: Contig639_at PATHOGENESIS-RELATED PROTEIN PRECURSOR; assay: as above; conditions: 10 mg per plant to soil
Experimental: as §1, §2, §3

[5] = tested on: HV_CEb0020C01r2_at INTEGUMENTARY MUCIN B.1; assay: as above; conditions: 10 mg per plant to soil
Experimental: as §1, §2, §3

O=[N+]([O-])/N=C1\NCCN1Cc1ccc(Cl)nc1 [imidacloprid]
expression of genes for PR proteins [1]: increased expression; also recorded: powerful induction | Induction factor = Expression (treated)/Expression (untreated) ([2]; 0.25 d): 0.6 | Median of the raw expression data, treated ([2]; 0.25 days): 143.08 | Induction factor = Expression (treated)/Expression (untreated) ([2]; 1 d): 0.4 | Median of the raw expression data, treated ([2]; 1 day): 78.12 | Induction factor = Expression (treated)/Expression (untreated) ([2]; 6 d): 7.9 | Median of the raw expression data, treated ([2]; 6 days): 6881.20 | Induction factor = Expression (treated)/Expression (untreated) ([2]; 8 d): 8.8 | Median of the raw expression data, treated ([2]; 8 days): 8961.17 | Induction factor = Expression (treated)/Expression (untreated) ([2]; 11 d): 5.4 | Median of the raw expression data, treated ([2]; 11 days): 7946.25 | Induction factor = Expression (treated)/Expression (untreated) ([2]; 13 d): 3.6 | Median of the raw expression data, treated ([2]; 13 days): 1553.93 | Induction factor = Expression (treated)/Expression (untreated) ([2]; 15 d): 2.8 | Median of the raw expression data, treated ([2]; 15 days): 1970.04 | Induction factor = Expression (treated)/Expression (untreated) ([2]; 16 d): 2.4 | Median of the raw expression data, treated ([2]; 16 days): 2013.49 | Induction factor = Expression (treated)/Expression (untreated) ([2]; 17 d): 0.7 | Median of the raw expression data, treated ([2]; 17 days): 1121.55 | Induction factor = Expression (treated)/Expression (untreated) ([3]; 0.25 d): 0.9 | Median of the raw expression data, treated ([3]; 0.25 days): 31.12 | Induction factor = Expression (treated)/Expression (untreated) ([3]; 1 d): 0.9 | Median of the raw expression data, treated ([3]; 1 day): 29.13 | Induction factor = Expression (treated)/Expression (untreated) ([3]; 6 d): 8.4 | Median of the raw expression data, treated ([3]; 6 days): 561.20 | Induction factor = Expression (treated)/Expression (untreated) ([3]; 8 d): 19.3 | Median of the raw expression data, treated ([3]; 8 days): 830.74 | Induction factor = Expression (treated)/Expression (untreated) ([3]; 11 d): 13.6 | Median of the raw expression data, treated ([3]; 11 days): 664.56 | Induction factor = Expression (treated)/Expression (untreated) ([3]; 13 d): 3.0 | Median of the raw expression data, treated ([3]; 13 days): 235.46 | Induction factor = Expression (treated)/Expression (untreated) ([3]; 15 d): 1.1 | Median of the raw expression data, treated ([3]; 15 days): 227.32 | Induction factor = Expression (treated)/Expression (untreated) ([3]; 16 d): 2.5 | Median of the raw expression data, treated ([3]; 16 days): 76.80 | Induction factor = Expression (treated)/Expression (untreated) ([3]; 17 d): 0.6 | Median of the raw expression data, treated ([3]; 17 days): 32.84 | Induction factor = Expression (treated)/Expression (untreated) ([4]; 0.25 d): 0.7 | Median of the raw expression data, treated ([4]; 0.25 days): 157.66 | Induction factor = Expression (treated)/Expression (untreated) ([4]; 1 d): 0.3 | Median of the raw expression data, treated ([4]; 1 day): 38.68 | Induction factor = Expression (treated)/Expression (untreated) ([4]; 6 d): 8.6 | Median of the raw expression data, treated ([4]; 6 days): 2482.57 | Induction factor = Expression (treated)/Expression (untreated) ([4]; 8 d): 14.7 | Median of the raw expression data, treated ([4]; 8 days): 3944.01 | Induction factor = Expression (treated)/Expression (untreated) ([4]; 11 d): 8.9 | Median of the raw expression data, treated ([4]; 11 days): 4273.57 | Induction factor = Expression (treated)/Expression (untreated) ([4]; 13 d): 11.3 | Median of the raw expression data, treated ([4]; 13 days): 1496.21 | Induction factor = Expression (treated)/Expression (untreated) ([4]; 15 d): 2.9 | Median of the raw expression data, treated ([4]; 15 days): 920.86 | Induction factor = Expression (treated)/Expression (untreated) ([4]; 16 d): 4.4 | Median of the raw expression data, treated ([4]; 16 days): 1300.36 | Induction factor = Expression (treated)/Expression (untreated) ([4]; 17 d): 2.9 | Median of the raw expression data, treated ([4]; 17 days): 1196.37 | Induction factor = Expression (treated)/Expression (untreated) ([5]; 0.25 d): 1.4 | Median of the raw expression data, treated ([5]; 0.25 days): 96.81 | Induction factor = Expression (treated)/Expression (untreated) ([5]; 1 d): 0.9 | Median of the raw expression data, treated ([5]; 1 day): 87.44 | Induction factor = Expression (treated)/Expression (untreated) ([5]; 6 d): 4.3 | Median of the raw expression data, treated ([5]; 6 days): 418.12 | Induction factor = Expression (treated)/Expression (untreated) ([5]; 8 d): 2.8 | Median of the raw expression data, treated ([5]; 8 days): 428.35 | Induction factor = Expression (treated)/Expression (untreated) ([5]; 11 d): 2.2 | Median of the raw expression data, treated ([5]; 11 days): 389.74 | Induction factor = Expression (treated)/Expression (untreated) ([5]; 13 d): 1.7 | Median of the raw expression data, treated ([5]; 13 days): 180.00 | Induction factor = Expression (treated)/Expression (untreated) ([5]; 15 d): 1.0 | Median of the raw expression data, treated ([5]; 15 days): 170.35 | Induction factor = Expression (treated)/Expression (untreated) ([5]; 16 d): 1.2 | Median of the raw expression data, treated ([5]; 16 days): 161.77 | Induction factor = Expression (treated)/Expression (untreated) ([5]; 17 d): 0.6 | Median of the raw expression data, treated ([5]; 17 days): 106.72
